In article PMC6346292 (Chemical Science, 2018):

What was measured:
[1] = molecular target: T1, IL-8 (Homo sapiens, UniProt P10145); test: FP competition assay; assay type: binding; details: FP competition with probe 15 (table footnote)
T1 sequence (P10145 21-99): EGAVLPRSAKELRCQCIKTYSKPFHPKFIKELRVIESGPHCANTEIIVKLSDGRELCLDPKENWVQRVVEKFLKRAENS

[2] = molecular target: T2, BMP-2 (Homo sapiens, UniProt P12643); test: FP competition assay; assay type: binding; details: FP competition with probe 15 (table footnote)
T2 sequence (P12643 283-396): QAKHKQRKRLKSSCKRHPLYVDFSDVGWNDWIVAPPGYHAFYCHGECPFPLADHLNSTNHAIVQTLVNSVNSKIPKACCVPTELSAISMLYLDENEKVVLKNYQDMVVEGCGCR

[3] = molecular target: T3, Sclerostin (Homo sapiens, UniProt Q9BQB4); test: FP competition assay; assay type: binding; details: FP competition with probe 15 (table footnote)
T3 sequence (Q9BQB4 24-213): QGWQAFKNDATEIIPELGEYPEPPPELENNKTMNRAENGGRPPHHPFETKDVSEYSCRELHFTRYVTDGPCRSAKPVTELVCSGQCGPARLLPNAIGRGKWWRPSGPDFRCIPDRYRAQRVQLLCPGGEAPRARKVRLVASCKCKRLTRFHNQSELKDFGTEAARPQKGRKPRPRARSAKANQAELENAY

[4] = tested on: antithrombine III (AT-III); details: cited from earlier work

Kd [1]: 19 ± 2.5 µM
Kd [2]: 80.9 ± 8.5 µM
Kd [3]: 629 ± 335 µM
Structure (SMILES): CO[C@H]1O[C@H](COS(=O)(=O)O)[C@@H](O[C@@H]2O[C@@H](C(=O)O)[C@@H](O[C@H]3O[C@H](COS(=O)(=O)O)[C@@H](O[C@@H]4O[C@H](C(=O)O)[C@@H](O[C@H]5O[C@H](COS(=O)(=O)O)[C@@H](O)[C@H](O)[C@H]5NS(=O)(=O)O)[C@H](O)[C@H]4O)[C@H](OS(=O)(=O)O)[C@H]3NS(=O)(=O)O)[C@H](O)[C@H]2OS(=O)(=O)O)[C@H](O)[C@H]1NS(=O)(=O)O [Fondaparinux, fondaparinux]
ligand affinity class [4]: nanomolar ligand
